Data: patent US12156860B2, “Disorders implicating PUFA oxidation” (BioJiva LLC, priority 2011, dated 2024)

Assays:
[1] = test system: stroke-prone spontaneously hypertensive (SHRSP) rat; assay: SHRSP rat model of hypertension; assay type: in vivo; conditions: SHRSP rats, 8 weeks
Excerpt: The stroke-prone spontaneously hypertensive (SHRSP) rat model of hypertension, which has been previously described (McIntyre et al., 1997 Hypertension 30:1517; Alexander et al., 1999 Cardiovasc. Res. 43:798; Fennell et al., 2002 Gene Ther. 9:110), can be used for the assessment of a compound's ability to mitigate hypertension.

[2] = Oxidation of mixtures of LA and D2-LA in chlorobenzene; assay type: physicochemical
Method: FIG. 8. Dependence of the rate of oxidation of the mixture of LA and D2-LA in chlorobenzene solution on mixture composition. Conditions: [LA]+[11,11-d2-LA]=0.775 M; [AMVN]=0.0217 M; 37° C. RIN=(1.10±0.08)×10^−7 M/sec.
To simulate the likely in vivo conditions, the kinetics of the oxidation of the mixtures of D2-LA and LA were studied (FIG. 8). In the experiments, the concentration of LA plus 11,11-d2-LA was 0.775 M; the concentration of AMVN was 0.0217 M; and the reactions were carried out at 37° C. The results afforded an RIN of 1.10±0.08×10^−7 M/sec.

Wild-type yeast cells = assay: C11-Bodipy 581/591 lipid peroxidation in copper-stressed yeast; assay type: cell-based, S. cerevisiae; conditions: 200 μM fatty acid 2 hours, then 50 μM CuSO4 60 min
Method: Wild-type yeast cells were treated as described above except the yeast were treated with 200 μM of the designated fatty acid for 2 hours, washed with sterile water, and were either not treated (triangles) or treated with 50 μM CuSO4 (squares) at room temperature. After 60 min of copper treatment cells were treated with 8 μM C11-Bodipy 581/591 for 30 min at room temperature. Four 100 μl aliquots were plated in a 96-well plate and the fluorescence was measured.

Q-less coq3 yeast = assay: Yeast incubated with different ratios of H- and D-PUFA, plate dilution; assay type: cell-based, S. cerevisiae; conditions: 200 μM total LA and D2-LA at different ratios
Method: FIG. 9. […] Wild-type, yeast Q-less coq3, or respiratory deficient cor1 null mutants were incubated in the presence of 200 μM of LA and D2-LA at different ratios of PUFAs. Serial dilutions (1:5) starting at 0.2 OD/ml were spotted on YPD solid plate medium. A zero-time untreated control is shown on the top left. Growth at 30° C.
FIG. 10. […] Serial dilutions (1:5) starting at 0.2 OD/ml were spotted on YPD solid plate medium. Growth at 30° C.
Wild-type, yeast Q-less coq3, or respiratory deficient cor1 null mutants were incubated in the presence of 200 μM of LA and D2-LA at different ratios of PUFAs, as indicated in FIG. 9. Serial dilutions (1:5) starting at 0.2 OD/ml were spotted on YPD solid plate medium. […] Growth was at 30° C.
Serial dilutions (1:5) starting at 0.2 OD/ml were spotted on YPD solid plate medium. Growth was at 30° C.

rat hearts = assay: Langendorf isolated heart perfusion model, echo- and electrocardiography; assay type: in vivo; conditions: rats, 8 weeks supplementation
Method: Test compounds disclosed herein can also be assessed using the Langendorf isolated heart perfusion model. […] Following the treatment period, rat hearts are analyzed by echocardiography for measurement of muscle thickness of the left ventricle, left atrium, right ventricle, and right atrium and electrocardiography for measuring electrical activity. After live evaluation, rats are humanely sacrificed and their hearts isolated and connected to the Langendorf isolated perfusion system (See Jennings et al., Am. Surg. 2004; 70(9), 797-800). Left ventricular pressure is then measured with a left ventricular balloon. Coronary flow is also measured. Cardiac function is further assessed by determining the effect of administration of test compounds on the rate of contraction and relaxation of the heart. To determine whether any observed effects on cardiac function are due to the effect of the test compound on mitochondrial function, mitochondrial activity pre-ischemia and post-ischemia is assessed for each of the treatment groups.

[3] = Kinetics of O2 consumption during AMVN-initiated oxidation in chlorobenzene (glass capillary microvolumeter); assay type: physicochemical
Method: FIG. 7. Kinetics of O2 consumption accompanied the oxidation of 0.71 M LA (plots 1 and 2) and 0.71 M D2-LA (plot 3) in chlorobenzene initiated by 40 mM AMVN at 37° C. Plot 2-0.23 mM HPMC was added to 0.71 M LA.
The kinetics of oxygen consumption during the oxidation of LA and D2-LA was studied with a glass capillary microvolumeter (FIG. 7). The rate of oxidation, ROX, was measured as a slope of [O2] traces. The rate of initiation, RIN, was determined by the inhibitor method with HPMC (“6-hydroxy-2,2,5,7,8-pentamethylbenzochroman”) as a reference inhibitor. RIN was calculated from the induction period of inhibited oxidation, tIND: RIN=2·[HPMC]/tIND. […] When the process was inhibited by 0.23 mM chain-breaking antioxidant HPMC, the duration of the induction period, tIND, was about 48 min, with the RIN value of around 0.16×10^−6 M/s. […] The latter precludes a direct determination of RIN. […] An estimated kinetic isotope effect (“KIE”), from comparison of ROX for LA and D2-LA, was around 6.1×10^−6/0.18×10^−6≈35. A similar KIE was determined during the oxidation of LA and 11,11-d2-LA in Triton X-100 aqueous micelles (data not shown). For comparative purposes, the theoretical KIE is 6.9 at 25° C. See Carpenter, “Determination of Organic Reaction Mechanisms” (John Wiley & Sons, 1984), p. 89.

Compound: [2H]C([2H])(/C=C\CCCCC)/C=C\CCCCCCCC(=O)O [D2-LA, 11,11-Dideutero-cis,cis-9,12-Octadecadienoic acid]
- systolic blood pressure [1]: reduction in systolic blood pressure
- effect during oxidation of mixture with non-deuterated methyl linoleate ([2]; data not shown): qualitatively similar effect
- effect on autoxidation of non-deuterated LA in mixture ([2]; mixtures of D2-LA and LA): ‘protects’ the non-deuterated LA against autoxidation
- levels of lipid peroxidation (C11-Bodipy fluorescence) (Wild-type yeast cells): lower levels of lipid peroxidation similar to yeast not treated with PUFA
- sufficiently minimal amount to cancel the toxicity of LA (Q-less coq3 yeast): 10-15%
- symptoms and markers associated with cardiac disorders (rat hearts): reduce symptoms and markers associated with cardiac disorders
- rate of oxidation, ROX ([3]; 0.71 M in chlorobenzene, 40 mM AMVN, 37° C.): 1.8e-07 M/s
- kinetic isotope effect (KIE) from comparison of ROX for LA and D2-LA ([3]; chlorobenzene, 37° C.): ≈ 35
- length of the kinetic chain, ROX/RIN ([3]; for D2-LA assuming RIN comparable to that of LA): ≈ 1.1
